Reference: PMC8041318, “Folic Acid–Peptide Conjugates Combine Selective Cancer Cell Internalization with Thymidylate Synthase Dimer Interface Targeting” (Journal of Medicinal Chemistry, 2021)

Assays:
[1] = test system: HSP90AA1; settings: IGROV-1, 5 μM, 48 h
[2] = test system: DHFR; settings: IGROV-1, 5 μM, 48 h
[3] = in vitro; settings: human, cytosol
Protocol: Given the relevance of the concentration data, we checked whether the 30 min incubation time could represent a drawback in our analytical approach.
C13* human ovarian cancer cell lines (highly cisplatin-resistant) were prepared as reported for IGROV1 (LC-MS compartmentalization experiment).[65] […] After each interval, the cells (about 2 million per Petri plate) were washed three times with acid phosphate-buffered saline (PBS, pH 5.0), scraped, and counted. […] Each cytosol aliquot was diluted to a final volume of 500 μL with a 1:1 mixture of H2O with 0.1% HCOOH and ACN with 1 μM 1,4-dithiothreitol (DTT) as an antioxidant agent.
Sample analysis was carried out on an UltiMate 3000 UHPLC (Thermo Fisher Scientific) coupled to an Orbitrap Q-Exactive mass spectrometer. We used an Agilent Poroshell C18 column (120 Å, 100 × 2.1 mm^2, 2.7 μm ps) to separate the analytes, thermostated at 30 °C, with an injection volume of 20 μL per sample. […] C13* cells were assumed to have a spherical volume of 2 pL, whose 60% represented by cytoplasm. Thus, interpolated values were multiplied by the final dilution value (500 μL) and divided by the number of cells for each sample multiplied by a single-cell cytosol volume (1.2 pL).

[4] = test system: hTS
[5] = test system: IGROV-1 cells; assay: Cell growth inhibition, crystal violet dye assay; assay type: cell-based, human
Description: (§1) SQ was defined as the net growth inhibitory effect of the analogue combination divided by the sum of the net individual analogue effects on growth inhibition. A quotient of >1.1 indicates a synergistic effect, that between 0.9 and 1.1 indicates an additive effect, while a quotient of <0.9 indicates an antagonistic effect.

[6] = test system: A2780 cells; assay: Cell growth inhibition, crystal violet dye assay (combination study); assay type: cell-based, human
Description: as §1

[7] = test system: R1-11-FR2 and R5-FR12 HeLa cells; parameters: method as in PMID 19074442; settings: tritiated FA; cited from earlier work
[8] = test system: RFC; settings: physiological conditions; read-out: Km toward RFC; cited from earlier work

SMILES: CC(C)C[C@H](NC(=O)CC[C@H](NC(=O)c1ccc(NCc2cnc3nc(N)nc(O)c3n2)cc1)C(=O)O)C(=O)N[C@@H](CO)C(=O)N[C@@H](CS)C(=O)N[C@H](CCC(N)=O)C(=O)N[C@@H](CC(C)C)C(=O)N[C@@H](Cc1ccc(O)cc1)C(=O)N[C@@H](CCC(N)=O)C(=O)N[C@@H](CCCNC(=N)N)C(=O)O [FA–[DGln^4]LR]
- reduction of HSP90AA1 level [1]: 10%
- DHFR protein level with respect to control (in words) [2]: clear decrease

SMILES: CC(C)C[C@H](NC(=O)CC[C@H](NC(=O)c1ccc(NCc2cnc3nc(N)[nH]c(=O)c3n2)cc1)C(=O)O)C(=O)N[C@@H](CO)C(=O)N[C@@H](CS)C(=O)N[C@@H](CCC(N)=O)C(=O)N[C@@H](CC(C)C)C(=O)N[C@@H](Cc1ccc(O)cc1)C(=O)N[C@@H](CCC(N)=O)C(=O)N[C@@H](CCCNC(=N)N)C(=O)O [FA–LR]
- half-life [3]: 3.33 h

SMILES: O=c1[nH]cc(F)c(=O)[nH]1 [5-FU, 5-fluorouracil]
- hTS protein levels (in words) ([4]; IGROV-1, Figures SI-10 and SI-11): slightly increased
- % Growth inhibition, single compound ([5]; 5FU 10µM): 28.4%
- % Growth inhibition, single compound ([5]; 5FU 15µM): 36.5%
- % Growth inhibition, single compound ([6]; 5FU 10µM): 45.3%
- % Growth inhibition, single compound ([6]; 5FU 15µM): 34.5%

SMILES: Cc1nc2ccc(CN(C)c3ccc(C(=O)N[C@@H](CCC(=O)O)C(=O)O)s3)cc2c(=O)[nH]1 [raltitrexed]
- % Growth inhibition, single compound ([5]; RTX 10nM): 34.5%
- % Growth inhibition, single compound ([5]; RTX 20nM): 29.5%
- % Growth inhibition, single compound ([6]; RTX 10nM): 56.8%
- % Growth inhibition, single compound ([6]; RTX 20nM): 59.9%

SMILES: Nc1nc2[nH]cc(CCc3ccc(C(=O)N[C@@H](CCC(=O)O)C(=O)O)cc3)c2c(=O)[nH]1 [PMX, pemetrexed]
- upregulation of hTS protein levels ([4]; IGROV-1, 5 μM, 48 h): 2.5 fold

SMILES: [NH2][Pt]([NH2])([Cl])[Cl] [cDDP, cisplatin]
- % Growth inhibition, single compound ([5]; cDDP 1µM): 40.3%
- % Growth inhibition, single compound ([5]; cDDP 2µM): 44.9%
- % Growth inhibition, single compound ([5]; cDDP 5µM): 48.8%
- % Growth inhibition, single compound ([6]; cDDP 1µM): 37.3%
- % Growth inhibition, single compound ([6]; cDDP 2µM): 49.1%
- % Growth inhibition, single compound ([6]; cDDP 5µM): 78.6%

SMILES: Nc1nc2ncc(CNc3ccc(C(=O)N[C@@H](CCC(=O)O)C(=O)O)cc3)nc2c(=O)[nH]1 [FA, folic acid]
- ratio of concentrations between vesicular and cytosolic fractions [7]: 10.8
- Km [8]: > 100 µM
